Experimental data reported in patent publication US5011930A, “Quinoline type mevalonolactones” (Nissan Chemical Industries Ltd., priority 1987, dated 1991).
pIC50: −log10 of the molar value. Counter-ions that a name gives are not always drawn.

These compounds were tested on cholesterol biosynthesis (assay: Test A: Inhibition of cholesterol biosynthesis from acetate in vitro). Details: [2-^14 C]sodium acetate incorporation into nonsaponifiable lipids, 2 hours at 37° C.; IC50; read-out: Inhibitory activities by Test A: I50 (molar concentration).
Type: biochemical, male Wistar rat (liver microsome and sup fraction)
Procedure: Enzyme solution was prepared from liver of male Wistar rat billialy cannulated and discharged bile for over 24 hours. Liver was cut out at mid-dark and microsome and supernatant fraction which was precipitable with 40-80% of saturation of ammonium sulfate (sup fraction) were prepared from liver homogenate according to the modified method of Knauss et. al.; Kuroda, M., et. al., Biochim. Biophys. Acta, 489, 119 (1977). For assay of cholesterol biosynthesis, microsome (0.1 mg protein) and sup fraction (1.0 mg protein) were incubated for 2 hours at 37° C. in 200 μl of the reaction mixture containing ATP; 1 mM, Glutathione; 6 mM, Glucose-1-phosphate; 10 mM, NAD; 0.25 mM, NADP; 0.25 mM, CoA; 0.04 mM and 0.2 mM [2-^14 C]sodium acetate (0.2 μCi) with 4 μl of test compound solution dissolved in water or dimethyl sulfoxide. To stop reaction and saponify, 1 ml of 15% EtOH-KOH was added to the reactions and heated at 75° C. for 1 hour. […] Inhibitory activity of compounds was indicated with IC50.
`Cc1nc2ccccc2c(-c2ccccc2)c1/C=C/C(O)CC(O)CC(=O)O` (stereo not drawn) [I-53] gave a pIC50 of 6.72. For `CC(C)c1nc2ccccc2c(-c2ccc(F)cc2)c1/C=C/C(O)CC(O)CC(=O)O` (stereo not drawn) [I-51, Sodium salt of (E)-3,5-dihydroxy-7-[4'-(4"-fluorophenyl)-2'-(1"-methylethyl)-quinolin-3'-yl]-hept-6-enoic acid], the pIC50 was 8.00. `CC[C@H](C)C(=O)O[C@H]1C[C@H](O)C=C2C=C[C@H](C)[C@H](CC[C@@H](O)C[C@@H](O)CC(=O)O)[C@H]21` [CS-514, reference compound] gave a pIC50 of 8.05. For `CCOC(=O)CC(O)CC(O)/C=C/c1c(C)nc2ccccc2c1-c1ccccc1` (stereo not drawn) [I-13], the pIC50 was 6.90. With `Cc1nc2ccccc2c(-c2ccc(F)cc2)c1/C=C/C(O)CC(O)CC(=O)O` (stereo not drawn) [I-52] the pIC50 was 7.15. `CC[C@H](C)C(=O)O[C@H]1C[C@@H](C)C=C2C=C[C@H](C)[C@H](CC[C@@H]3C[C@@H](O)CC(=O)O3)[C@H]21` [Mevinolin, reference compound] gave a pIC50 of 7.85.

Same assay, conditions: relative to the activity of CS-514 being evaluated to be 1
`CCOC(=O)CC(O)CC(O)/C=C/c1c(C(C)C)nc2ccc(Cl)cc2c1-c1ccccc1` (stereo not drawn) [I-16] was tested, and the “Relative activities by Test A” value was 1.75. With `CC(C)c1nc2c(Cl)cc(Cl)cc2c(-c2ccc(F)cc2)c1/C=C/C(O)CC(O)CC(=O)O` (stereo not drawn) [I-522] the “Relative activities by Test A” value was 0.76. For `CCOC(=O)CC(O)CC(O)/C=C/c1c(C(C)C)nc2cc(OC)c(OC)cc2c1-c1ccc(F)cc1` (stereo not drawn) [I-116], the “Relative activities by Test A” value was 2.25. In the case of `CCOC(=O)CC(O)CC(O)/C=C/c1c(C2CC2)nc2ccccc2c1-c1ccc(F)cc1` (stereo not drawn) [I-120], the “Relative activities by Test A” value was 3.21. In the case of `CCOC(=O)CC(O)CC(O)/C=C/c1c(CC)nc2ccccc2c1-c1ccc(F)cc1` (stereo not drawn) [I-117], the “Relative activities by Test A” value was 0.37.

These compounds were tested on cholesterol biosynthesis in Hep G2 cells (assay: Test B-1: Inhibition of cholesterol biosynthesis in culture cells (Hep G2)). Details: Homo sapiens, HepG2, [2-^14 C]sodium acetate added at 0 hr after addition of compounds, 4 hrs incubation, read-out: Inhibitory activities by Test B-1: I50 (molar concentration).
Type: cell-based
Procedure: Hep G2 cells at over 5th passage were seeded to 12 well plates and incubated with Dulbecco's modified Eagle (DME) medium containing 10% of fetal bovine serum (FBS) at 37° C., 5% CO2 until cells were confluent for about 7 days. Cells were exposed to the DME medium containing 5% of lipoprotein deficient serum (LpDS) prepared by ultracentrifugation method for over 24 hours. Medium was changed to 0.5 ml of fresh 5% LpDS containing DME before assay and 10 μl of test compound solution dissolved in water or DMSO were added. 0.2 μCi of [2-^14 C]sodium acetate (20 μl) was added at 0 hr(B-1) or 4 hrs(B-2) after addition of compounds. After 4 hrs further incubation with [2-^14 C]sodium acetate, medium was removed and cells were washed with phosphate buffered saline(PBS) chilled at 4° C. Cells were scraped with rubber policeman and collected to tubes with PBS and digested with 0.2 ml of 0.5 N KOH at 37° C. Aliquot of digestion was used for protein analysis and remaining was saponified with 1 ml of 15% EtOH--KOH at 75° C. for 1 hour. […] Counts were revised by cell protein and indicated with DPM/mg protein. Inhibitory activity of compounds was indicated with IC50.
`CC(C)c1nc2ccccc2c(-c2ccc(F)cc2)c1/C=C/C(O)CC(O)CC(=O)O` (stereo not drawn) [I-51, Sodium salt of (E)-3,5-dihydroxy-7-[4'-(4"-fluorophenyl)-2'-(1"-methylethyl)-quinolin-3'-yl]-hept-6-enoic acid] showed a pIC50 of 7.00.

Same assay, conditions: relative to the activity of CS-514 being evaluated to be 1
`O=C(O)CC(O)CC(O)/C=C/c1c(C2CC2)nc2ccccc2c1-c1ccc(F)cc1` (stereo not drawn) [I-520] was tested, and the “Relative activities by Test B-1” value was 20.0. In the case of `CCOC(=O)CC(O)CC(O)/C=C/c1c(C(C)C)nc2cc(OC)c(OC)cc2c1-c1ccc(F)cc1` (stereo not drawn) [I-116], the “Relative activities by Test B-1” value was 19.4. For `CCOC(=O)CC(=O)CC(O)/C=C/c1c(C2CC2)nc2ccccc2c1-c1ccc(F)cc1` (stereo not drawn) [II-20], the “Relative activities by Test B-1” value was 20.8.
